# Measured values reported in US7700786B2, “Pyrazole derivative, intermediate therefor, processes for producing these, and herbicide containing these as active ingredient” (Sagami Chemical Research Center, priority 2001, dated 2010).
# How the values were obtained:
# Echinochloa oryzicola = assay: Herbicidal efficacy test by pre-emergence treatment under submergence condition; assay type: in vivo; conditions: 15th day after treatment, ratings of 1 to 5
# Excerpt: (§3) A 1/10,000-are pot was filled with paddy field soil, and, after plowing, seeds of Echinochloa oryzicola, Cyperus difformis, Monochoria vaginalis, Scirpus juncoides, Eleocharis acicularis and other annual broadleaf weeds such as Lindernia procumbens, Rotala indica and Elatine triandra were sown. Rice (oryza sativa) seedlings (cultiver “Koshihikari”) at a 2.5-leaf stage were transplanted and kept under a submergence condition. After one day, the wettable powder or emulsifiable concentrate of the compound of the present invention, prepared according to Preparation Example, was diluted and dropped on a water surface at a predetermined dose.
# Cyperus difformis = assay: as above; assay type: in vivo; conditions: 15th day after treatment, ratings of 1 to 5; further: key: 1 shows no influence; 5 shows complete die
# Excerpt: as §3
# [1] = system: annual broadleaf weeds such as Lindernia procumbens, Rotala indica and Elatine triandra; assay: as above; assay type: in vivo; conditions: 15th day after treatment, ratings of 1 to 5
# Excerpt: as §3
# Monochoria vaginalis = assay: as above; assay type: in vivo; conditions: 15th day after treatment, ratings of 1 to 5; further: key: 1 shows no influence; 5 shows complete die
# Excerpt: as §3
# Scirpus juncoides = assay: as above; assay type: in vivo; conditions: 15th day after treatment, ratings of 1 to 5
# Excerpt: as §3
# Eleocharis acicularis = assay: as above; assay type: in vivo; conditions: 15th day after treatment, ratings of 1 to 5; further: key: 1 shows no influence; 5 shows complete die
# Excerpt: as §3
# Amaranthus viridis [2] = assay: Herbicidal efficacy test by soil treatment before germination under upland field condition; assay type: in vivo; conditions: dose 1 kg/ha; 21st day after treatment; ratings of 1 to 5; further: key: 1 shows no influence; 5 shows complete die
# Excerpt: (§1) A vat having an area of 5×10 cm^2 and a depth of 5 cm was filled with upland field soil, and seeds of Chenopodium album, Echinochloa crus-galli, Amaranthus viridis, Digitaria ciliaris and sweet corn (Zea mays) were sown thereon and covered with soil by a depth of 0.5 cm.
# Chenopodium album [3] = assay: as above; assay type: in vivo; conditions: dose 1 kg/ha; 21st day after treatment; ratings of 1 to 5
# Excerpt: as §1
# Digitaria ciliaris = assay: as above; assay type: in vivo; conditions: dose 1 kg/ha; 21st day after treatment; ratings of 1 to 5
# Excerpt: as §1
# Echinochloa crus-galli [4] = assay: as above; assay type: in vivo; conditions: dose 1 kg/ha; 21st day after treatment; ratings of 1 to 5
# Excerpt: as §1
# sweet corn (Zea mays) = assay: Injury to corn, soil treatment before germination under upland field condition; assay type: in vivo; conditions: dose 1 kg/ha; 21st day after treatment; ratings of 1 to 5
# Excerpt: as §1
# Amaranthus viridis [5] = assay: Herbicidal efficacy test by foliar treatment after germination under upland field condition; assay type: in vivo; conditions: dose 1 kg/ha, rated 1 to 5 on the 14th day after treatment; further: key: 1 shows no influence; 5 shows complete die
# Excerpt: (§2) A vat having an area of 5×10 cm^2 and a depth of 5 cm was filled with upland field soil, and seeds of Chenopodium album, Echinochloa crus-galli, Amaranthus viridis and Abutilon theophrasti were sown thereon and covered with soil by a depth of 0.5 cm. Water was sprayed as required to grow them for 14 days.
# Chenopodium album [6] = assay: as above; assay type: in vivo; conditions: dose 1 kg/ha, rated 1 to 5 on the 14th day after treatment
# Excerpt: as §2
# Echinochloa crus-galli [7] = assay: as above; assay type: in vivo; conditions: dose 1 kg/ha, rated 1 to 5 on the 14th day after treatment
# Excerpt: as §2
# Abutilon theophrasti = assay: as above; assay type: in vivo; conditions: Dc: Digitaria ciliaris (table footnote; method names Abutilon theophrasti), dose 1 kg/ha, rated 1 to 5 on the 14th day after treatment
# [8] = system: Rice (oryza sativa) seedlings (cultiver Koshihikari); conditions: in vivo
# Excerpt: as §3
# Wherever Herbicidal activity Ca is given: key: 1 shows no influence; 5 shows complete die.
Structure (SMILES),Herbicidal efficacy Eo (Echinochloa oryzicola; dose 0.5 kg/ha),Herbicidal efficacy Eo (Echinochloa oryzicola; dose 1 kg/ha),Herbicidal efficacy Cd (Cyperus difformis; dose 0.5 kg/ha),Herbicidal efficacy Cd (Cyperus difformis; dose 1 kg/ha),Herbicidal efficacy Blw ([1]; dose 0.5 kg/ha),Herbicidal efficacy Blw ([1]; dose 1 kg/ha),Herbicidal efficacy Mv (Monochoria vaginalis; dose 0.5 kg/ha),Herbicidal efficacy Mv (Monochoria vaginalis; dose 1 kg/ha),Herbicidal efficacy Sj (Scirpus juncoides; dose 0.5 kg/ha),Herbicidal efficacy Sj (Scirpus juncoides; dose 1 kg/ha),Herbicidal efficacy Ea (Eleocharis acicularis; dose 0.5 kg/ha),Herbicidal efficacy Ea (Eleocharis acicularis; dose 1 kg/ha),Herbicidal activity Av (Amaranthus viridis [2]),Herbicidal activity Ca (Chenopodium album [3]),Herbicidal activity Dc (Digitaria ciliaris),Herbicidal activity Ec (Echinochloa crus-galli [4]),Herbicidal activity Av (Amaranthus viridis [5]),Herbicidal activity Ca (Chenopodium album [6]),Herbicidal activity Ec (Echinochloa crus-galli [7]),Herbicidal activity Dc (Abutilon theophrasti),other results
Cc1cc(Oc2c(Cl)cc(C(F)(F)F)cc2Cl)nn1C(N)=O [Compound 3-3],5,5,5,5,5,5,5,5,5,5,5,5,5,5,4.5,3.5,5,5,4.5,5,Injury Zm (sweet corn (Zea mays)): 1.5; Injury Os [8]: 1.5
CNC(=O)n1nc(Oc2c(Cl)cc(C(F)(F)F)cc2Cl)cc1C [Compound 3-14],5,5,5,5,5,5,5,5,5,5,5,5,5,5,5,4.9,5,5,5,5,–
CCNC(=O)n1nc(Oc2c(Cl)cc(C(F)(F)F)cc2Cl)cc1C [Compound 3-44],5,5,5,5,5,5,5,5,5,5,5,5,5,5,5,5,5,5,5,5,Injury Zm (sweet corn (Zea mays)): 3
CCNC(=S)n1nc(Oc2c(Cl)cc(C(F)(F)F)cc2Cl)cc1C [Compound 3-45],5,5,5,5,5,5,5,5,4,5,5,5,5,5,5,5,5,5,5,5,Injury Zm (sweet corn (Zea mays)): 2
CCCNC(=O)n1nc(Oc2c(Cl)cc(C(F)(F)F)cc2Cl)cc1C [Compound 3-74],5,5,5,5,5,5,5,5,5,5,5,5,5,5,5,4.9,5,5,4.9,5,Injury Zm (sweet corn (Zea mays)): 1; Injury Os [8]: 1.8
Cc1cc(Oc2c(Cl)cc(C(F)(F)F)cc2Cl)nn1C(=O)NCCBr [Compound 3-146],5,5,5,5,5,5,5,5,5,5,5,5,–,–,–,–,–,–,–,–,Injury Os [8]: 1
COCNC(=S)n1nc(Oc2c(Cl)cc(C(F)(F)F)cc2Cl)cc1C [Compound 3-169],5,5,5,5,5,5,5,5,4,4.2,5,5,–,–,–,–,–,–,–,–,Injury Os [8]: 1
Cc1cc(Oc2c(Cl)cc(C(F)(F)F)cc2Cl)nn1C(=O)NCC1CCCO1 (stereo not shown) [Compound 3-183],5,5,5,5,5,5,5,5,5,5,5,5,5,5,4,3,5,5,5,5,Injury Zm (sweet corn (Zea mays)): 1; Injury Os [8]: 2
CNC(=O)n1nc(Oc2c(Cl)cc(C(F)(F)F)cc2Cl)c(Cl)c1C [Compound 3-249],5,5,5,5,5,5,5,5,5,5,5,5,5,5,5,4.5,5,5,5,5,Injury Zm (sweet corn (Zea mays)): 1.2
CCNC(=O)n1nc(Oc2c(Cl)cc(C(F)(F)F)cc2Cl)c(Cl)c1C [Compound 3-253],5,5,5,5,5,5,5,5,5,5,5,5,5,5,5,4,5,5,5,5,Injury Zm (sweet corn (Zea mays)): 1.5
CCNC(=O)n1nc(Oc2c(Cl)cc(C(F)(F)F)cc2Cl)cc1CC [Compound 3-330],5,5,5,5,5,5,5,5,5,5,5,5,5,5,5,3.5,5,5,5,5,Injury Zm (sweet corn (Zea mays)): 1.5
